From patent publication US10456359B2, “Synergistic beverage composition” (Harsha Chigurupati, priority 2015, dated 2019)
Where a SMILES comes first, the peptide text is derived from it.

Tests used:
[1] = test system: acetylcholinesterase activity of brain homogenate; conditions: Pro: Protection (%), rats, alcohol 5 Day
Experimental: (§4) We have included this parameter to evaluate cognition and memory deficit in experimental animals.
(§5) Experimental Design • (b) Animal study model 1: Saline/Alcohol (4.0 gm/kg/day, p.o.)/Formulation with alcohol (4.0 gm/kg/day, p.o.) were administered (fed orally by orogastric cannula) for one day. 12-16 hours after the dose the animals were sacrificed and blood samples will be collected for estimation of biochemical parameters. Whole brain without cerebellum were dissected out, 10% homogenate was prepared with 0.1 M PB (pH 7.4). The homogenate solution was centrifuged at 10000 rpm for 20 minutes at 4° C. and the supernatant was used for estimation of acetylcholinesterase activity, which was estimated by Ellman's method (Ellman G L et al. A new and rapid colorimetric determination of acetylcholinesterase activity. Biochem Pharmacol, 1961, 7:88.) • (c) Animal study model 2: Saline/Alcohol (4.0 gm/kg/day, p.o.)/Formulation with alcohol (4.0 gm/kg/day, p.o.) were administered (fed orally by orogastric cannula) for 5 consecutive days. 12-16 hours after the last dose, the animals were sacrificed and blood samples were collected for estimation of biochemical parameters. Whole brain without cerebellum were dissected out, 10% homogenate was prepared with 0.1 M PB (pH 7.4). The homogenate solution was centrifuged at 10000 rpm for 20 minutes at 4° C. and the supernatant was used for estimation of acetylcholinesterase activity. […] The latency period of day 5 (before alcohol) was compared with post alcohol latency period (Vorhees C V and Williams M T. Morris water maze: procedures for assessing spatial and related forms of learning and memory, Nat Protoc, 2006, 1(2): 848-58.). % Protection Calculated in Above Experiments: % Protection=1−[(T−NS)/(AL−NS)]×100 T=Mean value of drug treated, NS=Mean value of normal control, AL=Mean value of alcohol alone.
(§6) Male Wistar albino rats weighing 150-200 g were procured and randomly divided into groups consisting of twelve (12) animals in each group. Alcohol induced hangover and CNS related biochemical changes and memory function in rats by oral administration of 30% alcohol (4 gm/kg/day, p.o.) for 1 and 5 days and this group served as the negative control and treated groups received different formulation.
(§7) All drug solutions were prepared in 40% aqueous alcohol, adjusting the pH in the range of 5.0-10.0 for evaluation of alcohol induced hangover and CNS related biochemical parameters.

[2] = test system: interleukin-12 (IL-12) from brain homogenate; test: CNS study, IL-12 from brain homogenate, alcohol 5 days; type: in vivo, Wistar albino rats; conditions: Pro: Protection (%), rats, alcohol 5 Day
[3] = test system: Monocyte chemoattractant protein-1 (MCP-1); test: CNS/immunology study, serum MCP-1, alcohol 5 days; type: in vivo, Wistar albino rats; conditions: Pro: Protection (%), rats, alcohol 5 Day
Experimental: (§1) The lowest detectable limit of the kit is 0.1 ng/ml (Wang L, Li Y, Chen J, et al. “Ischemic Cerebral Tissue and MCP-1 Enhance Rat Bone Marrow Stromal Cell Migration in Interface Culture.” Experimental Hematology, 30, 7, 2002, 831-836).
(§2) For hangover, 1 day immunology parameter were considered and for CNS, 5 days immunology parameter were considered.

[4] = test system: aspartate aminotransferase (AST); test: Hepatoprotection study, serum AST, alcohol 5 days; type: in vivo, Wistar albino rats; conditions: Pro: Protection (%), rats, alcohol 4 gm/kg/day p.o.
interleukin-12 (IL-12) [5] = test: CNS/immunology study, serum IL-12, alcohol 5 days; type: in vivo, Wistar albino rats; conditions: Pro: Protection (%), rats, alcohol 5 Day
Source text: as §2

[6] = test system: spatial learning and memory; test: Morris water maze task (escape latency), alcohol 5 days; type: in vivo, Wistar albino rats; conditions: Pro: Protection (%), rats, alcohol 5 day
interleukin-12 (IL-12) [7] = test: Hangover study, serum IL-12, alcohol 1 day; type: in vivo, Wistar albino rats; set-up: concentration or dose not given beside the values; conditions: 1 Day alcohol
Source text: as §2

Interferon gamma (IFN-γ) [8] = test: CNS/immunology study, serum IFN-gamma, alcohol 5 days; type: in vivo, Wistar albino rats; conditions: Pro: Protection (%), rats, alcohol 5 Day
Source text: (§3) Distilled ethanol was obtained from Bengal Chemicals, West Bengal, India. Biochemical kits like AST, ALT, ALP and total protein were obtained from Span Diagnostics Ltd. Surat, India. Rat IL-12 ELISA kit (Elabscience Biotechnology Co. Ltd, WuHan, P.R.C.), Rat CRP ELISA kit (BD Biosciences, USA), Rat IFN-gamma ELISA kit (Biolegend, San Diego, Calif.) Rat MCP-1 ELISA kit (Elabscience Biotechnology Co. Ltd, WuHan, P.R.C.). All the chemicals used in the present study were of analytical grade and obtained from the following companies: Sigma (St. Louis, Mo., USA), Merck (Mumbai, India), S D fine chemicals (Mumbai, India) and Qualigen (Mumbai, India).
as §2

Interferon gamma (IFN-γ) [9] = test: Hangover study, serum IFN-gamma, alcohol 1 day; type: in vivo, Wistar albino rats; set-up: concentration or dose not given beside the values; conditions: 1 Day alcohol
Source text: as §3, §2

[10] = test system: serum C-reactive protein (CRP); test: Hangover study, serum CRP, alcohol 1 day; type: in vivo, Wistar albino rats; conditions: 1 Day alcohol
Source text: as §2

[11] = test system: Monocyte chemoattractant protein-1 (MCP-1); test: Hangover study, serum MCP-1, alcohol 1 day; type: in vivo, Wistar albino rats; set-up: concentration or dose not given beside the values; conditions: 1 Day alcohol
Experimental: as §1, §2

[12] = test system: serum alanine aminotransferase (ALT); test: Hepatoprotection study, serum ALT, alcohol 5 days; type: in vivo, Wistar albino rats; conditions: Pro: Protection (%), rats, alcohol 4 gm/kg/day p.o.
[13] = test system: interleukin-12 (IL-12) from brain homogenate; test: Hangover study, IL-12 from brain homogenate, alcohol 1 day; type: in vivo, Wistar albino rats; set-up: concentration or dose not given beside the values; conditions: 1 Day alcohol
[14] = test system: serum C-reactive protein (CRP); test: CNS/immunology study, serum CRP, alcohol 5 days; type: in vivo, Wistar albino rats; conditions: Pro: Protection (%), rats, alcohol 5 Day
Source text: as §2

[15] = test system: alkaline phosphatase (ALP); conditions: Pro: Protection (%); rats, alcohol 4 gm/kg/day p.o., 5 days, serum
Experimental: The levels of alanine aminotransferase (ALT), aspartate aminotransferase (AST) and alkaline phosphatise (ALP) in serum were measured using commercial spectrophotometric kit bought from Span Diagnostic Ltd. (www.span.in) according to the manufacturer's protocols.
12-16 hours after the last dose, the animals were sacrificed and blood samples were collected for estimation of biochemical parameters.
Male Wistar albino rats weighing 150-200 g were procured and randomly divided into groups consisting of twelve (12) animals in each group. Hepatoprotection was induced by alcohol in rats by oral administration of 30% alcohol (4 gm/kg/day, p.o.) for 5 days and this group served as the negative control and treated groups received different formulation.
All drug solutions were prepared in 40% aqueous alcohol, adjusting the pH in the range of 5.0-10.0 for evaluation of alcohol induced Hepatoprotection. This solution was further diluted with distilled water to obtain 30% aqueous alcoholic solution and administered orally by gavage to different rats group of step (a).

[16] = test system: Monocyte chemoattractant protein-1 (MCP-1) from brain homogenate; test: Hangover study, MCP-1 from brain homogenate, alcohol 1 day; type: in vivo, Wistar albino rats; conditions: 1 Day alcohol
[17] = test system: Monocyte chemoattractant protein-1 (MCP-1) from brain homogenate; test: CNS study, MCP-1 from brain homogenate, alcohol 5 days; type: in vivo, Wistar albino rats; conditions: Pro: Protection (%), rats, alcohol 5 Day
[18] = test system: acetylcholinesterase activity of brain homogenate; conditions: Hangover study, 1 Day alcohol; ingredient amounts in mass concentration (%)
Experimental: as §4, §5, §6, §7

serum ALT, AST and ALP = test: Hepatoprotection study overall (rise of serum ALT, AST and ALP), 5 alcohol doses; type: in vivo, Wistar albino rats; conditions: 5 alcohol doses of 4 gm/kg per oral

| SMILES | ACHe Pro [1] [%] | Brain IL12 Pro [2] [%] | MCP-1 Pro [3] [%] | AST Pro [4] [%] | IL12 Pro (interleukin-12 (IL-12) [5]) [%] | WATER MAZE Pro [6] [%] | IL12 Pro (Protection) (interleukin-12 (IL-12) [7]) [%] | IFN-Gamma Pro (Interferon gamma (IFN-γ) [8]) [%] | IFN-Gamma Pro (Protection) (Interferon gamma (IFN-γ) [9]) [%] | CRP Pro (Protection) [10] [%] | MCP-1 Pro (Protection) [11] [%] | ALT Pro [12] [%] | Brain IL12 Pro (Protection) [13] [%] | CRP Pro [14] [%] | ALP Pro [15] [%] | Brain MCP-1 Pro (Protection) [16] [%] | Brain MCP-1 Pro [17] [%] | ACHe Pro (Protection) [18] [%] | further results |
| --- | --- | --- | --- | --- | --- | --- | --- | --- | --- | --- | --- | --- | --- | --- | --- | --- | --- | --- | --- |
| CC1(C(=O)O)CCC2(C)CCC3(C)C(=CC(=O)C4C5(C)CCC(OC6OC(C(=O)O)C(O)C(O)C6OC6OC(C(=O)O)C(O)C(O)C6O)C(C)(C)C5CCC43C)C2C1 (stereo not drawn) [0.04 GA, 18β-GA] | 1.43 | 1.28 | 3.38 | 2.18 | 3.08 | 1.58 | 1.05 | 1.07 | 1.25 | 2.04 | 0.6 | 0.89 | 1.09 | 2.37 | 2.78 | 1.15 | 1.58 | 0.59 | – |
| CC1(C(=O)O)CCC2(C)CCC3(C)C(=CC(=O)C4C5(C)CCC(OC6OC(C(=O)O)C(O)C(O)C6OC6OC(C(=O)O)C(O)C(O)C6O)C(C)(C)C5CCC43C)C2C1 (stereo not drawn) [0.04a GA, 18α-GA] | 0.1 | 0.1 | 0.1 | 2.24 | 0.1 | 2.1 | 0.1 | 0.1 | 0.1 | 0.1 | 0.1 | 1.26 | 0.1 | 0.1 | 1.08 | 0.1 | 0.1 | 0.1 | – |
| C[C@H](N)C(=O)N[C@@H](CCC(N)=O)C(=O)O [0.5 DP, L-Ala-L-Gln] (H-Ala-Gln-OH) | 4.33 | 2.35 | 0.1 | 5.86 | 2.64 | 5.18 | 0.54 | 3.32 | 2.58 | 4.05 | 4.33 | 9.13 | 3.69 | 6.13 | 6.95 | 4.59 | 5.12 | 4.33 | – |
| C[C@H](N)C(=O)N[C@@H](CCC(N)=O)C(=O)O [0.75 DP, L-Ala-L-Gln] (H-Ala-Gln-OH) | 6.73 | 7.01 | 0.75 | 9.14 | 13.88 | 13.15 | 14.84 | 5.62 | 6.38 | 15.93 | 5.25 | 5.28 | 7.14 | 3.78 | 12.24 | 10.14 | 9.63 | 8.94 | – |
| CC1(C(=O)O)CCC2(C)CCC3(C)C(=CC(=O)C4C5(C)CCC(OC6OC(C(=O)O)C(O)C(O)C6OC6OC(C(=O)O)C(O)C(O)C6O)C(C)(C)C5CCC43C)C2C1 (stereo not drawn) [GA, 18-beta-Glycyrrhizin] | – | – | – | – | – | – | – | – | – | – | – | – | – | – | – | – | – | – | degree of protection (serum ALT, AST and ALP; GA as such at 0.04-0.3%): 5-25% |
| C[C@H](N)C(=O)N[C@@H](CCC(N)=O)C(=O)O [L-alanine-L-glutamine (DP), L-alanyl-L-glutamine] (H-Ala-Gln-OH) | – | – | – | – | – | – | – | – | – | – | – | – | – | – | – | – | – | – | degree of protection (serum ALT, AST and ALP; dose level of 0.5 to 1.0%): mild effect; degree of protection (serum ALT, AST and ALP; higher doses (2.0 to 3.0%)): high degree of protection |
| OC[C@@H](O)[C@@H](O)[C@H](O)[C@H](O)CO [Mannitol, D-Mannitol] | – | – | – | – | – | – | – | – | – | – | – | – | – | – | – | – | – | – | degree of protection (serum ALT, AST and ALP; individual ingredient at 0.5 to […]): 10-38% |
